# Test results published in US11046696B2, “Fused pyrimidine compound or salt thereof” (TAIHO PHARMACEUTICAL CO., LTD., priority 2016, dated 2021).
# System: human thyroid cancer cell line TT with RET activating mutation
# Assay: In vivo antitumor effect, mice subcutaneously implanted with TT cells
# Design: species or system BALB/cA Jcl-nu/nu male mice
# Details: 100 mg/kg/day group, grouping day (day 0)
# Description: Human thyroid cancer cell lines (TT) were subcutaneously implanted into the right frank of 6- to 7-week-old BALB/cA Jcl-nu/nu male mice. After about 2 to 3 weeks from the cell implantation, the length (mm) and the width (mm) of tumors found in mouse bodies were measured. […] The day on which the mice were divided into groups was determined to be the “grouping day” (day 0 or 1).
# A control group was administered a solvent (0.5% HPMC/0.1N HCl).
# To determine the index of the antitumor effect, TV of each drug-administrated group was measured on day 15, and the tumor volume on day 15 relative to the tumor volume on the grouping day (day 0 or 1) (relative tumor volume: RTV) and T/C (%) were calculated from the following equations, and the antitumor effect was evaluated. […] TV (mm^3)=(length×width^2)/2 RTV=(TV on day 15)/(TV on day 0 or day 1) T/C(%)=(the mean RTV of a test compound treatment group)/(the mean RTV of the control group)×100
row,SMILES,TV (mm^3) Day 0 Mean ± SE
1,"COCc1ccc(NC(=O)c2c(C#CCN3CCOCC3)n(C3(C)CC3)c3ncnc(N)c23)cc1 [Example 85, 4-amino-N-[4-(methoxymethyl)phenyl]-7-(1-methylcyclopropyl)-6-(3-morpholinoprop-1-yn-1-yl)-7H-pyrrolo[2,3-d]pyrimidine-5-carboxamide]",169.45 ± 16.73 mm^3

# System: not given
# Assay: not given
# Details: mouse, microsomes, 0.5 h, 1 μM
row,SMILES,Remaining (%)
1,"C/C=C/c1ccc(NC(=O)c2c(OCC)n(C3(C)CC3)c3ncnc(N)c23)cc1 [Example 117, (E)-4-amino-6-ethoxy-7-(1-methylcyclopropyl)-N-(4-(prop-1-en-1-yl)phenyl)-7H-pyrrolo[2,3-d]pyrimidine-5-carboxamide]",53%

# System: not listed separately
# Assay: Evaluation of stability in liver microsome
# Details: mouse liver microsome, 1 μM, 37° C. for 30 minutes
# Description: Solutions of the test compounds in DMSO/acetonitrile (the final concentration of each test compound was 1 μM, the final concentration of DMSO was 0.01%, and the final concentration of acetonitrile was 1%) were individually added to a liver microsome mixture solution (mouse liver microsome with a final concentration of 0.25 mg/mL, a potassium phosphate buffer with a final concentration of 100 mM, and magnesium chloride with a final concentration of 3 mM), and each mixture was pre-incubated at 37° C. for 5 minutes. […] After incubation at 37° C. for 30 minutes, a double amount of ethanol was added thereto to terminate the reaction, thereby obtaining post-reaction samples. A double amount of ethanol was added to each of the remaining mixture solutions, and a NADPH-generating system was further added thereto, thereby obtaining pre-reaction samples. The pre-reaction samples and post-reaction samples were centrifuged at 2000×g, and their supernatant was filtered through a glass filter. Each filtrate was then introduced into LC-MS/MS, and MS/MS peaks of the test compounds were detected. From the ratio of the post-reaction MS/MS peak to the pre-reaction MS/MS peak of the test compounds, the percentage of the remaining test compounds (remaining %) was calculated.
row,SMILES,Remaining (%)
1,"COCc1ccc(NC(=O)c2c(C#Cc3cccc(NCc4ccncc4)c3)n(C3(C)CC3)c3ncnc(N)c23)cc1 [Example 122, 4-amino-N-(4-(methoxymethyl)phenyl)-7-(1-methylcyclopropyl)-6-((3-((pyridin-4-ylmethyl)amino)phenyl)ethynyl)-7H-pyrrolo[2,3-d]pyrimidine-5-carboxamide]",62%
2,"COCc1ccc(NC(=O)c2c(C#CCCN3CCOCC3)n(C3(C)CC3)c3ncnc(N)c23)cc1 [Example 187, 4-amino-N-(4-(methoxymethyl)phenyl)-7-(1-methylcyclopropyl)-6-(4-morpholinobut-1-yn-1-yl)-7H-pyrrolo[2,3-d]pyrimidine-5-carboxamide]",68%
3,"COCc1ccc(NC(=O)c2c(-c3cn[nH]c3)n(C3(C)CC3)c3ncnc(N)c23)cc1 [Example 167, 4-amino-N-(4-(methoxymethyl)phenyl)-7-(1-methylcyclopropyl)-6-(1H-pyrazol-4-yl)-7H-pyrrolo[2,3-d]pyrimidine-5-carboxamide]",80%
4,"COCc1ccc(NC(=O)c2c(C#Cc3csc(C)n3)n(C3(C)CC3)c3ncnc(N)c23)cc1 [Example 126, 4-amino-N-(4-(methoxymethyl)phenyl)-7-(1-methylcyclopropyl)-6-((2-methylthiazol-4-yl)ethynyl)-7H-pyrrolo[2,3-d]pyrimidine-5-carboxamide]",69%
5,"COCc1ccc(NC(=O)c2c(-c3ccc(NC(C)=O)nc3)n(C3(C)CC3)c3ncnc(N)c23)cc1 [Example 147, 6-(6-acetamidopyridin-3-yl)-4-amino-N-(4-(methoxymethyl)phenyl)-7-(1-methylcyclopropyl)-7H-pyrrolo[2,3-d]pyrimidine-5-carboxamide]",68%
6,"COCc1ccc(NC(=O)c2c(C#Cc3ccc(N)nc3)n(C3(C)CC3)c3ncnc(N)c23)cc1 [Example 155, 4-amino-6-((6-aminopyridin-3-yl)ethynyl)-N-(4-(methoxymethyl)phenyl)-7-(1-methylcyclopropyl)-7H-pyrrolo[2,3-d]pyrimidine-5-carboxamide]",64%
7,"COCc1ccc(NC(=O)c2c(C#Cc3cnn(C)c3)n(C3(C)CC3)c3ncnc(N)c23)cc1 [Example 90, 4-amino-N-[4-(methoxymethyl)phenyl]-6-((1-methyl-1H-pyrazol-4-yl)ethynyl)-7-(1-methylcyclopropyl)-7H-pyrrolo[2,3-d]pyrimidine-5-carboxamide]",67%
8,"COCc1ccc(NC(=O)c2c(OCC3CCCCO3)n(C3(C)CC3)c3ncnc(N)c23)cc1 (stereo not shown) [Example 102, 4-amino-N-(4-(methoxymethyl)phenyl)-7-(1-methylcyclopropyl)-6-((tetrahydro-2H-pyran-2-yl)methoxy)-7H-pyrrolo[2,3-d]pyrimidine-5-carboxamide]",60%
9,"COCc1ccc(NC(=O)c2c(C#Cc3cnn(C(C)C)c3)n(C3(C)CC3)c3ncnc(N)c23)cc1 [Example 144, 4-amino-6-((1-isopropyl-1H-pyrazol-4-yl)ethynyl)-N-(4-(methoxymethyl)phenyl)-7-(1-methylcyclopropyl)-7H-pyrrolo[2,3-d]pyrimidine-5-carboxamide]",79%
10,"COCc1ccc(NC(=O)c2c(C#Cc3cccc(F)c3)n(C3(C)CC3)c3ncnc(N)c23)cc1 [Example 130, 4-amino-6-((3-fluorophenyl)ethynyl)-N-(4-(methoxymethyl)phenyl)-7-(1-methylcyclopropyl)-7H-pyrrolo[2,3-d]pyrimidine-5-carboxamide]",84%
11,"COCCN(C)CC#Cc1c(C(=O)Nc2ccc(COC)cc2)c2c(N)ncnc2n1C1(C)CC1 [Example 197, 4-amino-6-(3-((2-methoxyethyl)(methyl)amino)prop-1-yn-1-yl)-N-(4-(methoxymethyl)phenyl)-7-(1-methylcyclopropyl)-7H-pyrrolo[2,3-d]pyrimidine-5-carboxamide]",52%
12,"COCc1ccc(NC(=O)c2c(C#CCN(C)C)n(C3(C)CC3)c3ncnc(N)c23)cc1 [Example 198, 4-amino-6-(3-(dimethylamino)prop-1-yn-1-yl)-N-(4-(methoxymethyl)phenyl)-7-(1-methylcyclopropyl)-7H-pyrrolo[2,3-d]pyrimidine-5-carboxamide]",57%
13,"COCc1ccc(NC(=O)c2cn(C(C)(C)C(F)F)c3ncnc(N)c23)cc1 [Example 50, 4-amino-7-(1,1-difluoro-2-methylpropan-2-yl)-N-(4-(methoxymethyl)phenyl)-7H-pyrrolo[2,3-d]pyrimidine-5-carboxamide]",53%
14,"CCC(O)CC#Cc1c(C(=O)Nc2ccc(COC)cc2)c2c(N)ncnc2n1C1(C)CC1 (stereo not shown) [Example 157, 4-amino-6-(4-hydroxyhex-1-yn-1-yl)-N-(4-(methoxymethyl)phenyl)-7-(1-methylcyclopropyl)-7H-pyrrolo[2,3-d]pyrimidine-5-carboxamide]",59%
15,"COCc1ccc(NC(=O)c2c(OCC(C)OC)n(C3(C)CC3)c3ncnc(N)c23)cc1 (stereo not shown) [Example 100, 4-amino-N-(4-(methoxymethyl)phenyl)-6-(2-methoxypropoxy)-7-(1-methylcyclopropyl)-7H-pyrrolo[2,3-d]pyrimidine-5-carboxamide]",76%
16,"COCc1ccc(NC(=O)c2c(C#CC3(O)CCOC3)n(C3(C)CC3)c3ncnc(N)c23)cc1 (stereo not shown) [Example 177, 4-amino-6-((3-hydroxytetrahydrofuran-3-yl)ethynyl)-N-(4-(methoxymethyl)phenyl)-7-(1-methylcyclopropyl)-7H-pyrrolo[2,3-d]pyrimidine-5-carboxamide]",72%
17,"COCc1ccc(NC(=O)c2c(-c3ccc(CO)cc3)n(C3(C)CC3)c3ncnc(N)c23)cc1 [Example 145, 4-amino-6-(4-(hydroxymethyl)phenyl)-N-(4-(methoxymethyl)phenyl)-7-(1-methylcyclopropyl)-7H-pyrrolo[2,3-d]pyrimidine-5-carboxamide]",72%
18,"COCc1ccc(NC(=O)c2c(C#CCN3CCN(C)CC3)n(C3(C)CC3)c3ncnc(N)c23)cc1 [Example 132, 4-amino-N-(4-(methoxymethyl)phenyl)-7-(1-methylcyclopropyl)-6-(3-(4-methylpiperazin-1-yl)prop-1-yn-1-yl)-7H-pyrrolo[2,3-d]pyrimidine-5-carboxamide]",77%
19,"CCOc1c(C(=O)Nc2ccc(COC)cc2)c2c(N)ncnc2n1C1(C)CC1 [Example 127, 4-amino-6-ethoxy-N-(4-(methoxymethyl)phenyl)-7-(1-methylcyclopropyl)-7H-pyrrolo[2,3-d]pyrimidine-5-carboxamide]",70%
20,"COCc1ccc(NC(=O)c2c(OC[C@@H](C)OC)n(C3(C)CC3)c3ncnc(N)c23)cc1 [Example 96, (R)-4-amino-N-(4-(methoxymethyl)phenyl)-6-(2-methoxypropoxy)-7-(1-methylcyclopropyl)-7H-pyrrolo[2,3-d]pyrimidine-5-carboxamide]",71%
